Experimental data: the supplement of paper PMC11061612

Columns and labels:
Assay in all cases: Bliss excess, mean over the matrix (fraction); higher = more synergy
[1] = system: BALL-1 (B-Lymphoblastic Leukemia)
Method in brief: (§1)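 Bliss excess equals the observed combination effect minus the expected value EA + EB − EA·EB, where EA and EB are the effects of each agent alone. Combination Emax is the second-highest inhibition within the matrix. Inhibition was scaled from CellTiter-Glo 2.0 luminescence, with 0 set by vehicle wells and 1 by blank wells, after 72 hours of two-drug dosing of cells plated in 1536-well plates.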

[2] = system: Becker (Low Grade Glioma)
Method in brief: as §1

[3] = system: CML-T1 (Chronic Myelogenous Leukemia)
Method in brief: as §1

[4] = system: Calu-6 (Non-Small Cell Lung Carcinoma)
Method in brief: as §1

ES-2 (Ovarian Carcinoma) = system: ES-2 (Ovarian Carcinoma)
Method in brief: as §1

[5] = system: JHH-1 (Hepatocellular Carcinoma)
Method in brief: as §1

[6] = system: KYSE-70 (Esophageal Squamous Cell Carcinoma)
Method in brief: as §1

[7] = system: LAMA-84 (Chronic Myelogenous Leukemia)
Method in brief: as §1

[8] = system: LOUCY (T-Lymphoblastic Leukemia)
Method in brief: as §1

[9] = system: NCI-H1563 (Lung Adenocarcinoma)
Method in brief: as §1

[10] = system: NCI-H810 (Non-Small Cell Lung Carcinoma)
Method in brief: as §1

[11] = system: NKM-1 (Acute Myeloid Leukemia)
Method in brief: as §1

[12] = system: OVTOKO (Ovarian Carcinoma)
Method in brief: as §1

[13] = system: RERF-LC-KJ (Lung Adenocarcinoma)
Method in brief: as §1

[14] = system: RL95-2 (Endometrial Carcinoma)
Method in brief: as §1

[15] = system: RMG-I (Ovarian Carcinoma)
Method in brief: as §1

[16] = system: RPMI-8866 (Chronic Myelogenous Leukemia)
Method in brief: as §1

[17] = system: SJRH30 (Rhabdomyosarcoma)
Method in brief: as §1

[18] = system: SK-MM-2 (Plasma Cell Myeloma)
Method in brief: as §1

[19] = system: SW684 (Other Solid Carcinomas)
Method in brief: as §1

Row | Compound | Bliss excess [1] | Bliss excess [2] | Bliss excess [3] | Bliss excess [4] | Bliss excess (ES-2 (Ovarian Carcinoma)) | Bliss excess [5] | Bliss excess [6] | Bliss excess [7] | Bliss excess [8] | Bliss excess [9] | Bliss excess [10] | Bliss excess [11] | Bliss excess [12] | Bliss excess [13] | Bliss excess [14] | Bliss excess [15] | Bliss excess [16] | Bliss excess [17] | Bliss excess [18] | Bliss excess [19]
1 | NC1(C(=O)N[C@@H](CCO)c2ccc(Cl)cc2)CCN(c2ncnc3[nH]ccc23)CC1 [Capivasertib] + Cn1cnc2c(F)c(Nc3ccc(Br)cc3Cl)c(C(=O)NOCCO)cc21 [Selumetinib] (first compound max 10 µM, 7x7, partner max 10 µM) | 0.0317 | 0.0788 | 0.0217 | 0.0038 | 0.0171 | -0.0896 | -0.0073 | 0.0548 | 0.0806 | -0.119 | -0.014 | 0.142 | -0.0566 | 0.0517 | 0.0367 | 0.0235 | 0.0602 | 0.0297 | -0.0293 | 0.0495
2 | Cc1nc(Nc2ncc(C(=O)Nc3c(C)cccc3Cl)s2)cc(N2CCN(CCO)CC2)n1 [Dasatinib] + CC(=O)Nc1cccc(-n2c(=O)n(C3CC3)c(=O)c3c(Nc4ccc(I)cc4F)n(C)c(=O)c(C)c32)c1 [Trametinib] (first compound max 2 µM, 7x7, partner max 1 µM) | -0.0108 | 0.0234 | -0.0296 | 0.179 | 0.0522 | 0.0492 | -0.0729 | 0.0037 | 0.0286 | -0.111 | -0.0565 | -0.0196 | -0.139 | -0.0295 | -0.186 | -0.0276 | 0.073 | -0.0973 | -0.0157 | 0.0004
3 | COc1cccc2c1C(=O)c1c(O)c3c(c(O)c1C2=O)C[C@@](O)(C(=O)CO)C[C@@H]3O[C@H]1C[C@H](N)[C@H](O)[C@H](C)O1 [Doxorubicin] + Cc1cc2ncnn2cc1Nc1ncc2c(n1)n(C1CCOCC1)c(=O)n2C [AZD7648] (first compound max 1 µM, 7x7, partner max 10 µM) | 0.117 | 0.0406 | 0.0824 | 0.0914 | 0.076 | -0.0314 | 0.0271 | 0.121 | 0.0893 | 0.0572 | 0.0213 | 0.0803 | -0.0578 | 0.0113 | -0.0064 | -0.0445 | 0.193 | 0.122 | -0.0137 | -0.0211
4 | COc1cc2ncnc(Nc3ccc(F)c(Cl)c3)c2cc1OCCCN1CCOCC1 [Gefitinib] + CC(C)n1c(=O)n(C)c2cnc3cc(F)c(-c4ccc(OCCCN5CCCCC5)nc4)cc3c21 [AZD1390] (first compound max 10 µM, 7x7, partner max 0.3 µM) | -0.07 | -0.0247 | -0.0252 | -0.0556 | -0.0989 | -0.0772 | -0.038 | -0.0328 | 0.0024 | -0.0757 | -0.0863 | -0.0581 | -0.0672 | -0.0807 | -0.0454 | -0.0346 | -0.0857 | -0.0407 | -0.0267 | -0.0557
5 | CS(=O)(=O)CCNCc1ccc(-c2ccc3ncnc(Nc4ccc(OCc5cccc(F)c5)c(Cl)c4)c3c2)o1 [Lapatinib] + C[C@@H](Oc1cc(-c2cnn(C3CCNCC3)c2)cnc1N)c1c(Cl)ccc(F)c1Cl [Crizotinib] (first compound max 10 µM, 7x7, partner max 10 µM) | 0.0146 | -0.0387 | -0.106 | 0.0122 | -0.0565 | -0.0906 | -0.0359 | 0.001 | -0.102 | 0.0087 | -0.0386 | -0.0604 | -0.0437 | 0.074 | -0.0535 | -0.0367 | 0.005 | -0.0323 | -0.0207 | -0.0389
6 | CC(=O)c1c(C)c2cnc(Nc3ccc(N4CCNCC4)cn3)nc2n(C2CCCC2)c1=O [Palbociclib] + CC1(C)CCC(CN2CCN(c3ccc(C(=O)NS(=O)(=O)c4ccc(NCC5CCOCC5)c([N+](=O)[O-])c4)c(Oc4cnc5[nH]ccc5c4)c3)CC2)=C(c2ccc(Cl)cc2)C1 [Venetoclax] (first compound max 10 µM, 7x7, partner max 1 µM) | -0.0053 | -0.0205 | -0.0899 | 0.0322 | -0.0219 | -0.0601 | -0.0465 | 0.0201 | 0.083 | -0.0079 | -0.0585 | 0.0548 | -0.0114 | -0.0314 | 0.0133 | -0.0541 | -0.0632 | -0.0363 | -0.0265 | -0.0492
7 | CC(=O)c1c(C)c2cnc(Nc3ccc(N4CCNCC4)cn3)nc2n(C2CCCC2)c1=O [Palbociclib] + Cc1c2c(nn1C)CSCc1cc(n(C)n1)CSc1cc(c3ccccc3c1)OCCCc1c(C(=O)O)n(C)c3c-2c(Cl)ccc13 [AZD5991] (first compound max 10 µM, 7x7, partner max 1 µM) | -0.0683 | 0.0059 | -0.0233 | -0.0227 | -0.0182 | -0.0111 | -0.0462 | 0.0056 | 0.0154 | -0.098 | -0.0444 | -0.0003 | -0.0315 | -0.0723 | -0.0841 | -0.061 | -0.004 | -0.0488 | 0.0033 | -0.0906
